Source: patent US8530493B2, “Indolopyridines as Eg5 kinesin modulators” (4SC AG, priority 2006, dated 2013)

How the values were obtained:
[1] = test system: RKO p27 or p21 uninduced (proliferating) colon adenocarcinoma cells; assay: Alamar Blue cell viability assay, RKO p27 or p21 uninduced (proliferating); type: cell-based; details: Homo sapiens, RKOp27, 72 h, Table B2, anti-proliferative/cytotoxic activity, read-out: −log EC50 RKO p27 or p21 uninduced (proliferating) (converted)
Outline: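 Viability read by Alamar Blue fluorescence (ex 544, em 590 nm), normalised to untreated wells, after 72 h, 37° C, 5% CO2 compound exposure in triplicate. Cells were uninduced (no Ponasterone A), proliferating RKO colon carcinoma p27 or p21 subclones in DMEM with 10% FCS; values are −log EC50 (mol/l).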

[2] = test system: RKO p27 or p21 induced (arrested) colon adenocarcinoma cells; assay: Alamar Blue cell viability assay, RKO p27 or p21 induced (arrested); type: cell-based; details: Homo sapiens, RKOp27, Table B2, cells arrested by Ponasterone A, 72 hours, read-out: −log EC50 RKO p27 or p21 induced (arrested) (converted)
Outline: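 RKOp21 or RKOp27 subclones in DMEM/10% FCS with 10 μM Ponasterone A to induce p21/p27 arrest, seeded 24 h before compound; triplicate 72 h exposure at 37 °C. Alamar Blue fluorescence (544/590 nm) as % of untreated (1% DMSO) cells; EC50 from dose-response curves, reported as −log EC50 (mol/l).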

| EC50 [2] [nM] | Compound | EC50 [1] [nM] |
| --- | --- | --- |
| ≥ 3160 | COc1ccc2[nH]c3c(c2c1)C[C@@]1(C)C(=O)N(CCN2CCC(C)CC2)C(=O)N1[C@@H]3c1cccc(O)c1 (racemic) [Example 75, (3aSR,10RS)-10-(3-Hydroxy-phenyl)-6-methoxy-3a-methyl-2-[2-(4-methyl-piperidin-1-yl)-ethyl]-3a,4,9,10-tetrahydro-2,9,10a-triaza-cyclopenta[b]fluorene-1,3-dione] | 39.8 to 251 |
| ≥ 316 | C[C@@]12Cc3c([nH]c4ccc(Cl)cc34)[C@@H](c3cccc(O)c3)N1C(=O)N(CCN1CCOCC1)C2=O (racemic) [Example 120, (3aSR,10RS)-6-Chloro-10-(3-hydroxy-phenyl)-3a-methyl-2-(2-morpholin-4-ylethyl)-3a,4,9,10-tetrahydro-2,9,10a-triaza-cyclopenta[b]fluorene-1,3-dione] | 39.8 to 251 |
| ≥ 316 | COc1ccc2[nH]c3c(c2c1)C[C@@]1(C)C(=O)N(CCCNCCO)C(=O)N1[C@@H]3c1cccc(O)c1 (racemic) [Example 145, (3aSR,10RS)-2-[3-(2-Hydroxy-ethylamino)-propyl]-10-(3-hydroxy-phenyl)-6-methoxy-3a-methyl-3a,4,9,10-tetrahydro-2,9,10a-triaza-cyclopenta[b]fluorene-1,3-dione] | ≤ 39.8 |
| ≥ 316 | COc1ccc2[nH]c3c(c2c1)C[C@@]1(C)C(=O)N(CCN2CC=CC2)C(=O)N1[C@@H]3c1cccc(O)c1 (racemic) [Example 119, (3aSR,10RS)-2-[2-(2,5-Dihydro-pyrrol-1-yl)-ethyl]-10-(3-hydroxy-phenyl)-6-methoxy-3a-methyl-3a,4,9,10-tetrahydro-2,9,10a-triaza-cyclopenta[b]fluorene-1,3-dione] | ≤ 39.8 |
| ≥ 316 | C[C@@]12Cc3c([nH]c4ccc(Cl)cc34)[C@@H](c3cccc(O)c3)N1C(=O)N(CCNCC(F)F)C2=O (racemic) [Example 123, (3aSR,10RS)-6-Chloro-2-[2-(2,2-difluoro-ethylamino)-ethyl]-10-(3-hydroxy-phenyl)-3a-methyl-3a,4,9,10-tetrahydro-2,9,10a-triaza-cyclopenta[b]fluorene-1,3-dione] | 39.8 to 251 |
| ≥ 316 | C#CCNCCCN1C(=O)N2[C@H](c3cccc(O)c3)c3[nH]c4ccc(OC)cc4c3C[C@@]2(C)C1=O (racemic) [Example 147, (3aSR,10RS)-10-(3-Hydroxy-phenyl)-6-methoxy-3a-methyl-2-(3-prop-2-ynylamino-propyl)-3a,4,9,10-tetrahydro-2,9,10a-triaza-cyclopenta[b]fluorene-1,3-dione] | ≤ 39.8 |
| ≥ 3160 | C[C@@]12Cc3c([nH]c4ccc(Cl)cc34)[C@@H](c3cccc(O)c3)N1C(=O)N(CCN1CC=CCC1)C2=O (racemic) [Example 100, (3aSR,10RS)-6-Chloro-2-[2-(3,6-dihydro-2H-pyridin-1-yl)-ethyl]-10-(3-hydroxy-phenyl)-3a-methyl-3a,4,9,10-tetrahydro-2,9,10a-triaza-cyclopenta[b]fluorene-1,3-dione] | ≤ 39.8 |
| ≥ 316 | COc1ccc2[nH]c3c(c2c1)C[C@@]1(C)C(=O)N(CCCN2CC=CC2)C(=O)N1[C@@H]3c1cccc(O)c1 (racemic) [Example 149, (3aSR,10RS)-2-[3-(2,5-Dihydro-pyrrol-1-yl)-propyl]-10-(3-hydroxy-phenyl)-6-methoxy-3a-methyl-3a,4,9,10-tetrahydro-2,9,10a-triaza-cyclopenta[b]fluorene-1,3-dione] | ≤ 39.8 |
| ≥ 3160 | COc1ccc2[nH]c3c(c2c1)C[C@@]1(C)C(=O)N(CCCNC2CC2)C(=O)N1[C@@H]3c1cccc(O)c1 (racemic) [Example 93, (3aSR,10RS)-2-(3-Cyclopropylamino-propyl)-10-(3-hydroxy-phenyl)-6-methoxy-3a-methyl-3a,4,9,10-tetrahydro-2,9,10a-triaza-cyclopenta[b]fluorene-1,3-dione] | ≤ 39.8 |
| ≥ 316 | C=CCN(C)CCN1C(=O)N2[C@H](c3cccc(O)c3)c3[nH]c4ccc(Cl)cc4c3C[C@@]2(C)C1=O (racemic) [Example 117, (3aSR,10RS)-2-[2-(Allyl-methyl-amino)-ethyl]-6-chloro-10-(3-hydroxy-phenyl)-3a-methyl-3a,4,9,10-tetrahydro-2,9,10a-triaza-cyclopenta[b]fluorene-1,3-dione] | ≤ 39.8 |
| ≥ 316 | C=CCNCCCN1C(=O)N2[C@H](c3cccc(O)c3)c3[nH]c4ccc(OC)cc4c3C[C@@]2(C)C1=O (racemic) [Example 146, (3aSR,10RS)-2-(3-Allylamino-propyl)-10-(3-hydroxy-phenyl)-6-methoxy-3a-methyl-3a,4,9,10-tetrahydro-2,9,10a-triaza-cyclopenta[b]fluorene-1,3-dione] | ≤ 39.8 |
| ≥ 3160 | C=CCN(C)CCCN1C(=O)N2[C@H](c3cccc(O)c3)c3[nH]c4ccc(OC)cc4c3C[C@@]2(C)C1=O (racemic) [Example 88, (3aSR,10RS)-2-[3-(Allyl-methyl-amino)-propyl]-10-(3-hydroxy-phenyl)-6-methoxy-3a-methyl-3a,4,9,10-tetrahydro-2,9,10a-triaza-cyclopenta[b]fluorene-1,3-dione] | ≤ 39.8 |
| ≥ 3160 | C[C@@]12Cc3c([nH]c4ccc(Cl)cc34)[C@@H](c3cccc(O)c3)N1C(=O)N(CCCNC1CCC1)C2=O (racemic) [Example 138, (3aSR,10RS)-6-Chloro-2-(3-cyclobutylamino-propyl)-10-(3-hydroxy-phenyl)-3a-methyl-3a,4,9,10-tetrahydro-2,9,10a-triaza-cyclopenta[b]fluorene-1,3-dione] | ≤ 39.8 |
| ≥ 3160 | CC(C)(C)NCCN1C(=O)N2[C@H](c3cccc(O)c3)c3[nH]c4ccc(Cl)cc4c3C[C@@]2(C)C1=O (racemic) [Example 97, (3aSR,10RS)-2-(2-tert-Butylamino-ethyl)-6-chloro-10-(3-hydroxy-phenyl)-3a-methyl-3a,4,9,10-tetrahydro-2,9,10a-triaza-cyclopenta[b]fluorene-1,3-dione] | ≤ 39.8 |
| ≥ 316 | CCN(CC)CCCN1C(=O)N2[C@H](c3cccc(O)c3)c3[nH]c4ccc(OC)cc4c3C[C@@]2(C)C1=O (racemic) [Example 107, (3aSR,10RS)-2-(3-Diethylamino-propyl)-10-(3-hydroxy-phenyl)-6-methoxy-3a-methyl-3a,4,9,10-tetrahydro-2,9,10a-triaza-cyclopenta[b]fluorene-1,3-dione] | ≤ 39.8 |
| ≥ 316 | CN1CCN(CCN2C(=O)N3[C@H](c4cccc(O)c4)c4[nH]c5ccc(Cl)cc5c4C[C@@]3(C)C2=O)CC1 (racemic) [Example 111, (3aSR,10RS)-6-Chloro-10-(3-hydroxy-phenyl)-3a-methyl-2-[2-(4-methyl-piperazin-1-yl)-ethyl]-3a,4,9,10-tetrahydro-2,9,10a-triaza-cyclopenta[b]fluorene-1,3-dione] | ≤ 39.8 |
| ≥ 3160 | CCN(CC)CCCN1C(=O)N2[C@H](c3cccc(O)c3)c3[nH]c4ccc(Cl)cc4c3C[C@@]2(C)C1=O (racemic) [Example 137, (3aSR,10RS)-6-Chloro-2-(3-diethylamino-propyl)-10-(3-hydroxy-phenyl)-3a-methyl-3a,4,9,10-tetrahydro-2,9,10a-triaza-cyclopenta[b]fluorene-1,3-dione] | ≤ 39.8 |
| ≥ 3160 | COc1ccc2[nH]c3c(c2c1)C[C@@]1(C)C(=O)N(CCN2CCCCC2)C(=O)N1[C@@H]3c1cccc(O)c1 (racemic) [Example 71, (3aSR,10RS)-10-(3-Hydroxy-phenyl)-6-methoxy-3a-methyl-2-(2-piperidin-1-yl-ethyl)-3a,4,9,10-tetrahydro-2,9,10a-triaza-cyclopenta[b]fluorene-1,3-dione] | ≤ 39.8 |
| ≥ 316 | C[C@@]12Cc3c([nH]c4ccc(Cl)cc34)[C@@H](c3cccc(O)c3)N1C(=O)N(CCCCl)C2=O (racemic) [Example 57, (3aSR,10RS)-6-Chloro-2-(3-chloro-propyl)-10-(3-hydroxy-phenyl)-3a-methyl-3a,4,9,10-tetrahydro-2,9,10a-triaza-cyclopenta[b]fluorene-1,3-dione] | 39.8 to 251 |
| ≥ 316 | CN(CCO)CCCN1C(=O)N2[C@H](c3cccc(O)c3)c3[nH]c4ccc(Cl)cc4c3C[C@@]2(C)C1=O (racemic) [Example 132, (3aSR,10RS)-6-Chloro-2-{3-[(2-hydroxy-ethyl)-methyl-amino]-propyl}-10-(3-hydroxy-phenyl)-3a-methyl-3a,4,9,10-tetrahydro-2,9,10a-triaza-cyclopenta[b]fluorene-1,3-dione] | ≤ 39.8 |
| ≥ 316 | COc1ccc2[nH]c3c(c2c1)C[C@@]1(C)C(=O)N(CCCNCC(F)F)C(=O)N1[C@@H]3c1cccc(O)c1 (racemic) [Example 142, (3aSR,10RS)-2-[3-(2,2-Difluoro-ethylamino)-propyl]-10-(3-hydroxy-phenyl)-6-methoxy-3a-methyl-3a,4,9,10-tetrahydro-2,9,10a-triaza-cyclopenta[b]fluorene-1,3-dione] | 39.8 to 251 |
